Read-outs that look alike come from different tables or passages of the source. No end group written: not given here.
What was measured:
FcγIIIa = format: binding
FcγIIb = format: binding
FcγIIb/c = format: binding
[1] = system: Dengue Virus recombinant NS1; format: binding; conditions: summary of Table 6
Method: PAP IC were incubated with either no peptide or with SEQ ID NO:20 for one hour.

recombinant human FcγIIa = format: binding
Method: The results of 1:250 and 1:500 serial dilutions (ADE was most evident at serum dilutions of 1:250 to 1:500) of the DENV-IgG-IC were tested against inhibition of DENV-IgG-IC binding to huFcγRIIa coated microtiter wells. Results using huFcγRIIa coated wells with either a 1:250 dilution of DENV-IgG-IC with no inhibitor, a 1:250 dilution of DENV-IgG-IC with SEQ ID NO:20, a 1:500 dilution of DENV-IgG-IC with no inhibitor, and a 1:500 dilution of DENV-IgG-IC with SEQ ID NO:20 are shown in Table 5.

human C1q = test: Reverse ELISA: inhibition of PAP immune complex binding to C1q coated plates
Fcγ1 = format: binding
recombinant TNF-α = format: binding
FcγIIIb (NA2) = format: binding
FcγIIa (H131 allele) = format: binding
FcγIIa (R131 allele) = test: Reverse ELISA: inhibition of PAP-IC binding to FcγIIa (R131 allele) coated plates; conditions: PAP pre-incubated with peptide 1 h; positive control 1.599

Chain of FcγIIIb (NA2) (O75015 17-200): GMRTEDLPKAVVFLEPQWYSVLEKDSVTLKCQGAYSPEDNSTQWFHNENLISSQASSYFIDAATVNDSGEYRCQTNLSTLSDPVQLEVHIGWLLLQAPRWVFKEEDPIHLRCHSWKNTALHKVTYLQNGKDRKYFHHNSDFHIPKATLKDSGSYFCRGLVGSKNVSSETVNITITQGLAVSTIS

Substance | OD405 FcγIIIa (FcγIIIa) | OD405 FcγIIb (FcγIIb) | inhibition of C1q binding (ranking in words) (human C1q) | also measured
APPCAFHLGELVWCT (cysteine pairing not given here) [SEQ ID NO:18] | 0.880 | 0.380 | – | –
Ala-Pro-Pro-Asp-Cys-Ala-Trp-His-Leu-Gly-Glu-Leu-Val-Trp-Cys-Thr [SEQ ID NO:20] | 0.670 | 0.496 | greatest inhibition of C1q binding | FcγIIb/c (read at 405 nm) (FcγIIb/c): 0.266; inhibition of PAP-IC binding to recombinant DENV NS1 coated plates (in words) [1]: marked ability to inhibit the binding; DENV-IgG-IC binding to huFcγRIIa coated wells (ELISA reading) (recombinant human FcγIIa; 1:250 dilution of DENV2 (16681)-DENV convalescent IgG-IC, no peptide control 2.885): 0.265; DENV-IgG-IC binding to huFcγRIIa coated wells (ELISA reading) (recombinant human FcγIIa; 1:500 dilution of DENV2 (16681)-DENV convalescent IgG-IC, no peptide control 2.362): 0.289; inhibition of DENV2-anti-DENV convalescent IgG-IC binding to FcγIIa coated plates (in words) (recombinant human FcγIIa; summary of Table 5): marked ability to inhibit binding; % inhibition of IC binding, Fcγ1 (Fcγ1): 89%; Fcγ1 (read at 405 nm) (Fcγ1): 0.264; OD405 (recombinant TNF-α): 0.086; inhibition of PAP-IC binding to recombinant TNFα coated plates (in words) (recombinant TNF-α): marked ability to inhibit the binding; % inhibition of IC binding, FcγIIIb (NA2) (FcγIIIb (NA2)): 91%; FcγIIIb (NA2) (read at 405 nm) (FcγIIIb (NA2)): 0.266; FcγIIa* (H131 allele) (read at 405 nm) (FcγIIa (H131 allele)): 0.209
Asp-Cys-Ala-Trp-His-Leu-Gly-Glu-Leu-Val-Trp-Cys-Thr [SEQ ID NO:2] | 0.741 | 0.532 | – | OD405 FcγIIa (R131 allele) (FcγIIa (R131 allele)): 0.561
APPCARHLGELVWCT (cysteine pairing not given here) [SEQ ID NO:16] | 0.709 | 0.768 | next best result | –
Asp-Cys-Ala-Phe-His-Leu-Gly-Glu-Leu-Val-Trp-Cys-Thr [SEQ ID NO:3] | 0.810 | 0.510 | – | –
APPCAWHLGELVWCT (cysteine pairing not given here) [SEQ ID NO:14] | 0.530 | 0.562 | – | –

From US8815813B2, “Methods for treating immune-mediated Dengue Fever infections and antibody-dependent enhancement of Dengue Fever infections, including Dengue Hemorrhagic Fever and Dengue Shock Syndrome” (priority 2008, dated 2014)
